Here are results for 2 compounds from US9949980B2, “Drugs to prevent HPV infection” (Wisconsin Alumni Research Foundation, priority 2008, dated 2018).

For one series, the system named is HPV16 pseudoviruses. The experiment in a line: microbe, parasite or virus in culture. Particulars: Human papillomavirus 16, HEK-293T, 48 h. Format: cell-based. The method in brief: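 Viability was read by CellTiter Glo luminescence on the same wells used for the SEAP infection read-out, after 48 hrs further incubation.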
Another series relates to HPV11 pseudoviruses. The experiment in a line: HPV11 pseudovirus infection in HaCaT cells. Type of series: cell-based. As for the experimental part:
FIG. 4. Compounds 13 and 14 can inhibit infection by multiple anogenital HPVs. Shown are results from infection experiments in HaCaT cells monitoring the efficiency of infection by HPV16, HPV11 and HPV31 pseudovirus carrying the firefly luciferase gene in the absence (0 μM, vehicle only) or increasing concentrations (0.1 to 100 μM) of Compound 13 or 14. The Y axis is the relative efficiency of infection (squares) or cell viability (circles) as a function of drug concentration (X axis). All data points represent the average of values from triplicate samples. […] Data for HPV16 is the also plotted in FIG. 2.
Compounds 13 and 14: inhibition of infection by multiple papillomavirus genotypes. The goal of this study is to identify compounds that inhibit all sexually transmitted HPVs. For this reason, we monitored the ability of Compounds 13 and 14 to inhibit infection of two additional papillomavirus pseudoviruses that were generated using the capsid proteins of two other sexually transmitted HPVs, high risk HPV31 and low risk HPV11. […]
At 4 hours prior to exposure of cell to pseudoviruses, compounds were added to plates in 1% DMSO final concentration at the indicated amounts. […] Cell viability was assessed in parallel plates by Luminescent Cell Viability Assay (Promega Cat. #G7571).

The next series concerns HPV16 virus. The experiment in a line: Wild type HPV16 infection in 293T cells, early viral gene expression by real time PCR. Format: cell-based. Particulars: 5 to 10 μM (FIG. 3: 10 μM), 48 hours post infection. As for the experimental part: FIG. 3. Inhibition of infection by HPV 16 virus. Shown is the relative efficiency of infection by HPV16 virus in 293T cells as scored by quantifying early viral transcription using real time PCR for E2 (dark grey bars), E5 (white bars) and E7 (light grey bars) containing mRNAs at 48 hours post-infection in the absence (DMSO—vehicle only, values set at 100%) or the presence of the indicated compound (10 μM concentration). Data points shown are the average of triplicate sample values. The dotted line indicates the normalized value for no drug (set as 100% infection value).
The 21 selected compounds were also tested for their ability to inhibit infection by bonafide HPV16 in 293T cells by measuring early viral gene expression by real time PCR at 48 hours post infection (FIG. 3) after treatment of the cell with 5 to 10 μM of each compound. Consistently with the data of reporter gene assays, HPV early gene expression was inhibited by Compounds 4, 13, 14, 18 and 20. Given the large differences in IC50 and CD50, and the reproducible capacity to inhibit infection by HPV16 pseudovirus and HPV16 virus in different cell types, Compounds 13 and 14 were selected for further analysis.
After 2 day infection, total RNA was isolated from infected cell lysate and treated with DNase I (Promega) as previously. (Pyeon, D. et al., Establishment of human papillomavirus infection requires cell cycle progression, PLos Pathog. 2009 February; 5(2):e1000318. Epub 2009 Feb. 27). Complementary DNA (cDNA) was synthesized from the normalized total RNA with the SuperScript cDNA synthesis kit (Invitrogen). All oligonucleotide primers (0.5 μM) for PCR are previously published (Pyeon D. et al., Production of infectious human papillomavirus independently of viral replication and epithelial cell differentiation, Proc. Nat'l Acad. Sci. USA, 2005 Jun. 28; 102(26):9311-6, Epub 2005 Jun. 15) or listed in Table 2.
Conventional PCR was performed with Taq DNA polymerase (Promega) and the following cycle: denaturation at 94° C. for 5 min, 42 cycles of 94° C. for 30 sec., 55° C. for 1 min., and 72° C. for 1 min., followed by extension at 72° C. for 7 min. Final products were analyzed by 1% agarose gel electrophoresis and ethidium bromide staining. Quantitative RT-PCR was performed using QuantiTect SYBR green PCR kit (Qiagen) with the following cycle: denaturation at 95° C. for 5 min. and 40 cycles of 95° C. for 30 sec., 55° C. for 30 sec., and 72° C. for 30 sec.
On the technique in general: Real-time PCR tracks product formation cycle by cycle.

Series [1] is described as follows: in vitro. The settings on record: human.
Procedure: The protocol for the secondary screen was identical to that of the primary screen with the exception that all volumes were scaled up by a factor of four. RL activity was measured using the Renilla Luciferase Assay System (Promega).
Series [2] is described as follows: in vitro. Particulars: human. This is another data set of the same source.
[3] abbreviates: read-out: Infectivity (SEAP Activity), 3 μM HTS standard concentration, 293T cells, 48 hrs.
[4] abbreviates: read-out: Infectivity vs. viability, 3 μM HTS standard concentration, ratio infectivity/viability.
Setting [5] is: read-out: Primary HTS SEAP vs Viability, Table 2, first pair of columns (c2).
Where [6] appears, read: read-out: Primary HTS SEAP vs Viability, Table 2, second pair of columns (c4).

Entries after “also recorded” stand apart in the source; their conditions may differ. Read-outs that look alike come from different tables or passages of the source.

Broadly, the IC50 is the concentration at which inhibition is half-maximal. Read a high IC50 as a need for much substance. As to `CCCn1c2ccccc2c2nnc(SC(CC)C(=O)Nc3ccc(Cl)cn3)nc21` (centres unmarked) [Compound 13, N-(5-chloro-2-pyridinyl)-2-[(5-propyl-5H-[1,2,4]triazino[5,6-b]indol-3-yl)thio]butanamide], the activity at 3 µM in the series with HPV16 pseudoviruses (setting [3]) was 21.8%; with HPV16 pseudoviruses (setting [4]) it was 21.4%; with HPV16 pseudoviruses (setting [5]), 8.25%; with HPV16 pseudoviruses (setting [6]), 35.4%. Further, the IC50 with HPV11 pseudoviruses is under 100 nM. Besides, in the series with HPV16 virus, the “Inhibition of HPV16 early gene expression (E2, E5, E7 mRNAs)” value is “reproducible and significant inhibition; also recorded: inhibited”.
A word on the viability: it is a read-out of living cells in per cent, often relative to untreated cells. Regarding `Cc1cc(C(c2ccc(F)cc2)c2cc(C)c(NC(=O)c3ccccc3)c(C)c2)cc(C)c1NC(=O)c1ccccc1` [Compound 14, N,N′[[(4-fluorophenyl)methylene]bis(2,6-dimethyl-4,1-phenylene)]dibenzamide], the viability at 52 h, 3.3 μM in the series “in vitro [1]” and in “in vitro [2]” was 106% in each case. Further, the activity at 3 µM with HPV16 pseudoviruses (setting [3]) came to 51%; in the series with HPV16 pseudoviruses (setting [4]), 46.5%; in the series with HPV16 pseudoviruses (setting [5]), 65.4%; with HPV16 pseudoviruses (setting [6]), 36.6%. Moreover, the concentration for half-maximal inhibition (IC50) with HPV11 pseudoviruses was under 100 nM. The “Inhibition of HPV16 early gene expression (E2, E5, E7 mRNAs)” value in the series with HPV16 virus is “reproducible and significant inhibition; also recorded: inhibited”.
